Measurements reported in patent US20200384072A1, “THERAPY OF IONIZING RADIATION-INDUCED DISORDERS” (SCK-CEN, priority 2019, published 2020).

How the values were obtained:
TICAE cells = assay: Intracellular ROS, CM-H2DCFDA IncuCyte live cell imaging, TICAE cells; type: cell-based, human; conditions: 100 μM TAT-Gap19, 0.1 and 5 Gy, 45 min p.i.
Procedure: (§1) In order to further assess intracellular ROS production, IncuCyte live cell imaging was used to have fast imaging in large number of replicates over multiple time points. TICAE and TIME cells were seeded in 96-well plate in 16 replicates at a density of 10000 cells/well. Three days later, cells reached 100% confluence. At 30 minutes before irradiation, a fresh MesoEndo Cell Growth Medium without phenol red (Sigma-Aldrich Co. LCC, Diegem, Belgium) supplemented with 10 μmol/L of the CM-H2DCFDA dye (Sigma-Aldrich Co. LCC, Diegem, Belgium) was added to the cells, with or without 100 μM TAT-Gap19 (Genosphere Biotechnologies, Paris, France). Fluorescence signals were measured at 45 min, 2 h and 3 h after irradiation (CM-H2DCFDA dye became saturated due to photoactivaton, and leaked outside the cells after this time) using the IncuCyte ZOOM® system (Essen BioScience, Ann Arbor, Mich., USA), 10× objective and FITC filter. […] Images were analysed making use of the software package provided by the manufacturer; we used a training set of images from different doses to define the image processing procedure. The so called Top-Hat background subtraction method was applied by measuring the radius of the fluorescence object (30 μm), and adjust a threshold of 1.5 (above the local background fluorescent intensity level), as described in IncuCyte™ Background Fluorescence Technical Note. […]

[1] = target: hemichannels composed of Cx43 (Homo sapiens, UniProt P17302); conditions: cited from earlier work
Chain of hemichannels composed of Cx43 (P17302 whole entry): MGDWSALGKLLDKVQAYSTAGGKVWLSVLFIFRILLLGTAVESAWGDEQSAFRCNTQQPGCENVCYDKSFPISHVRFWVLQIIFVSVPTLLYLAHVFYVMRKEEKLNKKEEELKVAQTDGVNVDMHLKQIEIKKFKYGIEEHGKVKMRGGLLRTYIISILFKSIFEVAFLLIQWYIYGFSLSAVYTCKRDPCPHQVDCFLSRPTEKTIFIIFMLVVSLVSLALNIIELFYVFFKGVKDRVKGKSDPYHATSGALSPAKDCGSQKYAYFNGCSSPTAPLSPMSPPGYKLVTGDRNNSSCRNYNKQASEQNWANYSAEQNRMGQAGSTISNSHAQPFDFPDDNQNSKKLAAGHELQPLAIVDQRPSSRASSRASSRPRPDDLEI

TIME cells [2] = assay: Dextran fluorescein (10 kDa) dye uptake cell death assay, TIME cells; type: cell-based, human
Procedure: Dextran fluorescein, staining late apoptotic and necrotic cells, was used to validate apoptosis in TIME cells after irradiation. Cells were seeded in a 24-well plate at a density of 1.5×10^5 cells/well in 6 biological replicates. Three days later, cells reached 100% confluence. Before X-ray exposure with 30 minutes, cells were refreshed with medium with or without 100 μM TAT-Gap19 (Genosphere Biotechnologies, Paris, France). At 6 h and 72 h after irradiation, cells were washed twice with HMS supplemented with 25 mM HEPES (Sigma-Aldrich Co. LCC, Diegem, Belgium) (HBSS-HEPES). Afterwards, the cells were incubated with 200 μM dextran fluorescein (10 kDa) (Life Technologies, Merelbeke, Belgium), dissolved in HBSS-HEPES. After six minutes, the staining was removed by washing six times with HBSS-HEPES. Finally, the fluorescence was measured using the IncuCyte ZOOM® system (Essen BioScience, Ann Arbor, Mich., USA) by using FITC channel and phase contrast to count the cells using a ×10 objective. The fluorescence signal was normalized to cell count.

Cx43 hemichannels = target: T1, Cx43 hemichannels (Homo sapiens, UniProt P17302); assay: Extracellular ATP release after irradiation, TICAE cells; type: cell-based
T1 construct: endogenous in cells; host or cells: TICAE and TIME cells (human endothelial cell lines)
T1 sequence (P17302 whole entry): as above
Procedure: Hemichannels are an ATP release pathway and we therefore determined extracellular ATP after irradiation. To that purpose, TICAE and TIME cells were seeded in a 96-well plate at a density of 1×10^5 cells/well and 0.3×10^5 cells/well, respectively, in six to eight biological replicates. Three days later, cells reached 100% confluence. At 30 minutes before irradiation, cells were refreshed with 100 μl medium alone or with medium supplemented with 100 μM TAT-Gap19 (Genosphere Biotechnologies, Paris, France) to block the Cx43 hemichannels. For fractionated irradiation, cells were refreshed with 150 μl medium/well. At different time points after irradiation (1, 6 and 72 h), 1:5 ATP assay mix dissolved in ATP mix dilution buffer (Sigma-Aldrich Co. LCC, Diegem, Belgium) was added to each well. Extracellular ATP release was assessed by measuring the luminescence signal received after oxidation of luciferin and ATP to oxyluciferin and AMP using the CLARIOstar® microplate reader (BMG Labtech, Temse, Belgium). Experiments were corrected for baseline ATP signal in medium in the absence or presence of TAT-Gap19.

mice liver = conditions: mice treated with thioacetamide to induce liver fibrosis; cited from earlier work
[3] = system: non-alcoholic fatty liver mouse model; conditions: cited from earlier work
TIME cells [4] = assay: Intracellular ROS, CM-H2DCFDA IncuCyte live cell imaging, TIME cells; type: cell-based, human; conditions: 100 μM TAT-Gap19, 0.1 Gy, 45 min p.i.
Procedure: as §1

TAT-Gap19: connexin mimetic peptide, amino-acids 128-136 of the CL of Cx43 (SEQ ID NO: 2), Gap19 linked to TAT sequence; Cx43 hemichannel inhibitor (YGRKKRRQRRRKQIEIKKFK)
ROS production (IncuCyte) (TICAE cells): significantly reduced ROS production at both doses | half-time of Cx43 hemichannel block [1]: 100 s | dextran fluorescein staining (radiation-induced increase) (TIME cells [2]; 100 μM TAT-Gap19, 5 Gy at 6 h p.i., 5 and 0.1 Gy at 72 h p.i., including control response): inhibited | dextran fluorescein staining (TIME cells [2]; 100 μM TAT-Gap19, control and 0.1 Gy, 6 h p.i.): small increase | radiation-induced ATP release (Cx43 hemichannels; 100 μM TAT-Gap19, fractionated irradiation 0.1 and 5 Gy, 72 h p.i.): significantly inhibited the 5 Gy responses only | radiation-induced ATP release (Cx43 hemichannels; 100 μM TAT-Gap19, single 0.1 and 5 Gy, 1 h p.i.): no inhibition was observed | radiation-induced ATP release (Cx43 hemichannels; 100 μM TAT-Gap19, single 5 Gy, all cases except 1 h p.i. (6 h, 72 h)): significantly reduced the ATP release | SOD activity in liver (mice liver): increased SOD activity | IL-1B [3]: significantly decrease | TNF-α [3]: significantly decrease | ROS production (IncuCyte) (TIME cells [4]): reduced ROS production only significantly for the 0.1 Gy dose
